One molecule from ChEMBL document CHEMBL4680259, “Discovery of bazedoxifene analogues targeting glycoprotein 130” (Eur J Med Chem, 2020) can be followed below.

The source made the active and inactive calls. The rule behind the calls is not given here.

Data set [1] can be described thus: Clearance in rat at 0.5 mg/kg, iv. The data set is classed as ADME, organism-based. The conditions noted are these: in vivo.
For a further data set, the system named is A549. The data set is described as follows: Induction of apoptosis in human A549 cells assessed as early apoptotic cells at 6 uM incubated for 24 hrs by annexin V-FITC and propidium iodide staining based flow cytometry analysis (reference value: 0.5 %). The data set is classed as functional.
Data set [2] in a line: AUC (0 to infinity) in rat at 0.5 mg/kg, iv. The conditions noted are these: in vivo. On the set-up: route intravenous, time infinity, dose 0.5 mg/kg. Type of data set: ADME, organism-based.
For data set [3], the target named is T1, Interleukin-6 receptor subunit beta (Homo sapiens) (UniProt P40189).
T1 sequence (whole entry): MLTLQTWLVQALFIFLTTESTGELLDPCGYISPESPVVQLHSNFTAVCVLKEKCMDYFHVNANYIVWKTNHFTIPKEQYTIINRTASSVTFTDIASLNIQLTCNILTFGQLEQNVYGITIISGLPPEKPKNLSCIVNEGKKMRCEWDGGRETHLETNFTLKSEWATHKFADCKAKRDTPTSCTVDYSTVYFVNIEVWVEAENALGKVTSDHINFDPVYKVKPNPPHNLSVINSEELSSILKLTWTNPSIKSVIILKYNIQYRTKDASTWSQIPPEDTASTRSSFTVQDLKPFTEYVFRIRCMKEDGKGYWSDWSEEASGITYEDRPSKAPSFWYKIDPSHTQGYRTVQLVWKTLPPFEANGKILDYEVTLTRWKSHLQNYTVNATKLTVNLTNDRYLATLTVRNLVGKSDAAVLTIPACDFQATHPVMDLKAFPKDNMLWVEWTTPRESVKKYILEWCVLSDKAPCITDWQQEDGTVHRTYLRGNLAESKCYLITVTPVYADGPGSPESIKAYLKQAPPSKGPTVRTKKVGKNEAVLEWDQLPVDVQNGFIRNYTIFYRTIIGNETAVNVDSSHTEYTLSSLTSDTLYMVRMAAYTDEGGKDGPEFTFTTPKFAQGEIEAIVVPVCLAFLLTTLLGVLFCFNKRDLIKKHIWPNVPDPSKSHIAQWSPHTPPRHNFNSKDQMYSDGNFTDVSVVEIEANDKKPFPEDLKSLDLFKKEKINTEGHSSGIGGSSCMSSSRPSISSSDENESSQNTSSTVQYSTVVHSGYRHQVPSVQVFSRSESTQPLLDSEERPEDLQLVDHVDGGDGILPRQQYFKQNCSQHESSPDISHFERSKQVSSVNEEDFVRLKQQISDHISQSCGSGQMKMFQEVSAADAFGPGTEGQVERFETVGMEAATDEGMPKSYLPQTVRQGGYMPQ
In words: Inhibition of GP130 in human A549 cells assessed as decrease in JAK2 phosphorylation at 3 to 9 uM incubated for 24 hrs by western blot analysis. Type of data set: cell-based. The conditions noted are these: dose 3-9 µM.

For `NC(=O)N1N=C(c2ccc(C(F)(F)F)cc2)CC1c1cn(Cc2ccc(OCCN3CCCCCC3)cc2)c2ccc(Br)cc12` (centres undefined), the clearance (in general, the rate of elimination divided by the concentration) in data set [1] was 14.5 mL/min/kg. Besides, in the data set with A549, the Activity was 1.7%. For the same molecule, the AUC(0-inf) – broadly, the area under the concentration-time curve extrapolated to infinity – in data set [2] was 585 ng·h/mL. Besides, the result in data set [3] was Active.
